According to ChEMBL document CHEMBL4346711, “Discovery of coumarin Mannich base derivatives as multifunctional agents against monoamine oxidase B and neuroinflammation for the treatment of Parkinson's disease” (Eur J Med Chem, 2019):
The source made the active and inactive calls. The rule behind the calls is not given here.

Tests used:
[1] = biological target: T1, Amine oxidase [flavin-containing] A (Homo sapiens, UniProt P21397); assay: Inhibition of recombinant human MAO-A expressed in baculovirus infected BTI insect cells using p-tyramine as substrate preincubated for 60 mins followed by substrate addition and measured after 30 mins by horse-radish peroxidase-coupled amplex red reagent-based fluorescence spectrophotometric method
T1 sequence (P21397 whole entry): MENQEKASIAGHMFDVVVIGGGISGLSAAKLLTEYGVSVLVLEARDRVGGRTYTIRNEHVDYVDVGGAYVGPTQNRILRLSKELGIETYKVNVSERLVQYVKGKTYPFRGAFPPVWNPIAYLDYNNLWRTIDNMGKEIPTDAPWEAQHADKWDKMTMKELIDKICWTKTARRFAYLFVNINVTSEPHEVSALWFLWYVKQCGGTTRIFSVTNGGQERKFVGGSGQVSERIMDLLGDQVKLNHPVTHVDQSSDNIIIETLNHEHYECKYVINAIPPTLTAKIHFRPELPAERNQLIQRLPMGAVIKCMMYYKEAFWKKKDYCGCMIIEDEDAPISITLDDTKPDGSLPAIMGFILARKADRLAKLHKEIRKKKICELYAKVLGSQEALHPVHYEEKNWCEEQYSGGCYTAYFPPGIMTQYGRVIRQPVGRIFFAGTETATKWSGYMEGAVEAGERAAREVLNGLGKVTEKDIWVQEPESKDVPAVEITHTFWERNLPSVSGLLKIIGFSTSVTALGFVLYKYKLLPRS

Homo sapiens = species on record: Homo sapiens; assay: Selectivity index, ratio of IC50 for recombinant human MAO-A expressed in baculovirus infected BTI insect cells to IC50 for recombinant human MAO-B expressed in baculovirus infected BTI insect cells
[2] = biological target: T2, Amine oxidase [flavin-containing] B (Homo sapiens, UniProt P27338); assay: Inhibition of recombinant human MAO-B expressed in baculovirus infected BTI insect cells using p-tyramine as substrate preincubated for 60 mins followed by substrate addition and measured after 30 mins by horse-radish peroxidase-coupled amplex red reagent-based fluorescence spectrophotometric method
T2 sequence (P27338 whole entry): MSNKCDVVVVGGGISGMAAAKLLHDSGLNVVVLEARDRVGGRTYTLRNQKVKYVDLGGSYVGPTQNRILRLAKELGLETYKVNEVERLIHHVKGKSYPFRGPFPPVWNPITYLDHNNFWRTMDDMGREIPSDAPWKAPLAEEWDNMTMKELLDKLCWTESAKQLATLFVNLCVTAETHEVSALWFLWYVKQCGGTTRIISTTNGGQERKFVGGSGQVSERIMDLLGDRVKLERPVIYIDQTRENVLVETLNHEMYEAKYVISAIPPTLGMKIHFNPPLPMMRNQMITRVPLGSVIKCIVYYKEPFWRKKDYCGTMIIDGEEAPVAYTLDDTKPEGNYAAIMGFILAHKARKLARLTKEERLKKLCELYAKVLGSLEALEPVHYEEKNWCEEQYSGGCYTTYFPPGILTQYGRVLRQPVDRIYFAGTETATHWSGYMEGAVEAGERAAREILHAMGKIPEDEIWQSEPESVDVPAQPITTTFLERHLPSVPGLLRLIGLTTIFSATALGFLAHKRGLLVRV

[3] = Anti-neuroinflammatory activity in […] cells assessed as inhibition of LPS-induced NO production preincubated for 1 hr followed by LPS stimulation measured after 24 hrs by Griess reagent based assay; format: functional, cell-based; conditions: BV-2
SH-SY5Y [4] = assay: Neuroprotection against H2O2-induced cell death in human SH-SY5Y cells assessed as increase in cell viability preincubated for 1 hr followed by H2O2 addition and measured after 24 hrs by MTT assay; format: functional, cell-based
SH-SY5Y [5] = assay: Neuroprotection against L-glutamic acid-induced cell death in human SH-SY5Y cells assessed as increase in cell viability preincubated for 1 hr followed by L-glutamic acid addition and measured after 24 hrs by MTT assay; format: functional, cell-based
Mus musculus [6] = assay: Ex vivo inhibition of MAO-A in mid brain homogenates of MPTP-induced C57BL/6 mouse model of Parkinson's disease at 50 mg/kg, ig using p-tyramine as substrate preincubated for 60 mins followed by substrate addition and measured after 30 mins by horse-radish peroxidase-coupled/amplex red reagent-based fluorescence spectrophotometric method; format: functional, organism-based
Mus musculus [7] = assay: Ex vivo Inhibition of MAO-B in mid brain homogenates of MPTP-induced C57BL/6 mouse model of Parkinson's disease at 50 mg/kg, ig using p-tyramine as substrate preincubated for 60 mins followed by substrate addition and measured after 30 mins by horse-radish peroxidase-coupled/amplex red reagent-based fluorescence spectrophotometric method; format: functional, organism-based
Mus musculus [8] = assay: Anti-neuroinflammatory activity in po dosed MPTP-induced C57BL/6 mouse of Parkinson's disease assessed as increase in tyrosine hydroxylase positive cells in substantia nigra pretreated for 30 mins followed by MPTP challenge for 7 days and subsequent compound redosing for 5 days measured post-last dose by DAB staining based immunohistochemistry method; format: functional, organism-based
Mus musculus [9] = assay: Anti-neuroinflammatory activity in C57BL/6 mouse assessed as reduction in MPTP-induced iNOS expression in mid brain at 50 mg/kg, po pretreated for 30 mins followed by MPTP challenge for 7 days and subsequent compound redosing for 5 days measured post-last dose by Western blotting analysis; format: functional, organism-based
Mus musculus [10] = assay: Anti-neuroinflammatory activity in C57BL/6 mouse assessed as reduction in MPTP-induced COX2 expression in mid brain at 50 mg/kg, po pretreated for 30 mins followed by MPTP challenge for 7 days and subsequent compound redosing for 5 days measured post-last dose by Western blotting analysis; format: functional, organism-based
Mus musculus [11] = assay: Anti-neuroinflammatory activity in po dosed MPTP-induced C57BL/6 mouse model of Parkinson's disease assessed as increase in tyrosine hydroxylase expression in mid brain pretreated for 30 mins followed by MPTP challenge for 7 days and subsequent compound redosing for 5 days measured post-last dose by DAB staining based immunohistochemistry method; format: functional, organism-based
Mus musculus [12] = assay: Anti-parkinson's activity in po dosed MPTP-induced C57BL/6 mouse model of Parkinson's disease assessed as restoration of motor ability by measuring increase in latency to fall pretreated for 30 mins followed by MPTP challenge for 7 days and subsequent compound redosing for 5 days measured post-last dose by rotarod test; format: functional, organism-based
Mus musculus [13] = assay: Anti-parkinson's activity in MPTP-induced C57BL/6 mouse model of Parkinson's disease assessed as restoration of motor ability by measuring increase in latency to fall at 50 mg/kg, po pretreated for 30 mins followed by MPTP challenge for 7 days and subsequent compound redosing for 5 days measured post-last dose by rotarod test; format: functional, organism-based
Mus musculus [14] = assay: Anti-parkinson's activity in MPTP-induced C57BL/6 mouse model of Parkinson's disease assessed as restoration of motor ability by measuring increase in latency to fall at 10 mg/kg, po pretreated for 30 mins followed by MPTP challenge for 7 days and subsequent compound redosing for 5 days measured post-last dose by rotarod test; format: functional, organism-based
Mus musculus [15] = assay: Anti-neuroinflammatory activity in MPTP-induced C57BL/6 mouse of Parkinson's disease assessed as increase in tyrosine hydroxylase positive cells in substantia nigra at 10 mg/kg, po pretreated for 30 mins followed by MPTP challenge for 7 days and subsequent compound redosing for 5 days measured post-last dose by DAB staining based immunohistochemistry method; format: functional, organism-based

COc1ccc2cc(C(=O)CCN3CCCCC3)c(=O)oc2c1
IC50 [1]: 12.2 µM
Ratio IC50 (Homo sapiens): 0.61
IC50 [2]: 20.1 µM
IC50 [3]: 0.02 µM
EC50 (SH-SY5Y [4]): > 100 µM

O=C(CCN1CCCCC1)c1cc2ccc(O)cc2oc1=O
IC50 [1]: > 200 µM
IC50 [2]: > 200 µM
EC50 (SH-SY5Y [5]): 45.4 µM
IC50 [3]: 2.13 µM
EC50 (SH-SY5Y [4]): > 100 µM

CN(C)CCC(=O)c1cc2ccc(O)cc2oc1=O
IC50 [1]: 110 µM
Ratio IC50 (Homo sapiens): 1.53
IC50 [2]: 71.4 µM
EC50 (SH-SY5Y [5]): > 100 µM
IC50 [3]: 0.56 µM

Cc1cc(O)cc2oc(=O)c(C(=O)CCN(C)C)cc12
inhibition (Mus musculus [6]): inactive
inhibition (Mus musculus [7]): Active
Activity (Mus musculus [8]): Active
Activity (Mus musculus [9]): Active
Activity (Mus musculus [10]): Active
IC50 [1]: > 200 µM
Ratio IC50 (Homo sapiens): > 100
Activity (Mus musculus [11]): Active
IC50 [2]: 3.66 µM
Activity (Mus musculus [12]): Dose-dependent effect
EC50 (SH-SY5Y [5]): 25.7 µM
IC50 [3]: 0.22 µM
Activity (Mus musculus [13]): Active
EC50 (SH-SY5Y [4]): 19.7 µM

CN(C)CCC(=O)c1cc2cc(Br)c(O)c(Br)c2oc1=O
IC50 [1]: > 200 µM
IC50 [2]: > 200 µM
IC50 [3]: > 100 µM
EC50 (SH-SY5Y [4]): > 100 µM

O=C(CCN1CCN(Cc2ccccc2)CC1)c1cc2ccc(O)cc2oc1=O
IC50 [1]: 108 µM
Ratio IC50 (Homo sapiens): 2.63
IC50 [2]: 41.1 µM
EC50 (SH-SY5Y [5]): > 100 µM
IC50 [3]: 3.64 µM
EC50 (SH-SY5Y [4]): 1.82 µM

COc1ccc2cc(C(=O)CCN3CCOCC3)c(=O)oc2c1
IC50 [1]: 2.46 µM
Ratio IC50 (Homo sapiens): 0.53
IC50 [2]: 4.62 µM
EC50 (SH-SY5Y [5]): > 100 µM
IC50 [3]: 8.61 µM

CCN(CC)CCC(=O)c1cc2ccc(O)cc2oc1=O
IC50 [1]: 89.9 µM
Ratio IC50 (Homo sapiens): 0.96
IC50 [2]: 94 µM
EC50 (SH-SY5Y [5]): 13 µM
IC50 [3]: 2.67 µM

O=C(CCN1CCOCC1)c1cc2ccc(O)cc2oc1=O
IC50 [1]: 111 µM
Ratio IC50 (Homo sapiens): 0.73
IC50 [2]: 151 µM
EC50 (SH-SY5Y [5]): 22.9 µM
IC50 [3]: 0.01 µM
EC50 (SH-SY5Y [4]): > 100 µM

O=C(CCN1CCCC1)c1cc2ccc(O)cc2oc1=O
IC50 [1]: > 200 µM
IC50 [2]: > 200 µM
EC50 (SH-SY5Y [5]): > 100 µM
IC50 [3]: 0.61 µM

Cc1cc(O)cc2oc(=O)c(C(=O)CCN3CCOCC3)cc12
IC50 [1]: 98.5 µM
Ratio IC50 (Homo sapiens): 2.74
IC50 [2]: 36 µM
EC50 (SH-SY5Y [5]): > 100 µM
IC50 [3]: 0.28 µM
EC50 (SH-SY5Y [4]): > 100 µM

Cc1cc(O)cc2oc(=O)c(C(=O)CCN3CCCCC3)cc12
IC50 [1]: 136 µM
Ratio IC50 (Homo sapiens): 1.14
IC50 [2]: 119 µM
EC50 (SH-SY5Y [5]): > 100 µM
IC50 [3]: 0.11 µM
EC50 (SH-SY5Y [4]): 83.7 µM

COc1ccc2cc(C(=O)CCN3CCCC3)c(=O)oc2c1
IC50 [1]: 53.1 µM
Ratio IC50 (Homo sapiens): 2.93
IC50 [2]: 18.1 µM
IC50 [3]: > 100 µM
EC50 (SH-SY5Y [4]): > 100 µM

O=C(CCN1CCCC1)c1cc2cc(Br)c(O)c(Br)c2oc1=O
IC50 [1]: 155 µM
IC50 [2]: > 200 µM
IC50 [3]: > 100 µM
EC50 (SH-SY5Y [4]): 75.1 µM

O=C(CCN1CCOCC1)c1cc2cc(Br)c(O)c(Br)c2oc1=O
IC50 [1]: 34.1 µM
Ratio IC50 (Homo sapiens): 2.42
IC50 [2]: 14.1 µM
IC50 [3]: 24.6 µM
EC50 (SH-SY5Y [4]): > 100 µM

C#CCN(C)[C@H](C)Cc1ccccc1
Activity (Mus musculus [14]): Active
Activity (Mus musculus [15]): Active

Cc1cc(O)cc2oc(=O)c(C(=O)CCN3CCCC3)cc12
IC50 [1]: 173 µM
Ratio IC50 (Homo sapiens): 3.97
IC50 [2]: 43.7 µM
EC50 (SH-SY5Y [5]): > 100 µM
IC50 [3]: > 100 µM

COc1ccc2cc(C(=O)CCN(C)C)c(=O)oc2c1
IC50 [1]: 7.63 µM
Ratio IC50 (Homo sapiens): 0.36
IC50 [2]: 21.1 µM
IC50 [3]: > 100 µM
EC50 (SH-SY5Y [4]): > 100 µM

COc1cc(/C=C/C(=O)CC(=O)/C=C/c2ccc(O)c(OC)c2)ccc1O [CURCUMIN]
IC50 [3]: 1.58 µM
